Marks after values point to notes of the source that are not given here.
Assay: Disposition and mass balance of 14C-vernakalant hydrochloride after single IV and oral doses in CYP2D6 EMs and PMs
Assay type: in vivo, human
Settings: for AUC0-∞ / Cmax / Tmax / t1/2: plasma, single 240-mg dose
Description: This phase 1 study used an open-label, single-sequence, crossover design. […] The specific activity of the administered dose was 0.329 μCi/mg, yielding a total radioactive dose of 78.96 μCi. Participants remained confined to the center for 7 days after drug administration to ensure collection of urine and fecal samples for recovery of radioactivity. After an additional 2-week follow-up as outpatients, the cohort returned to the center 3 weeks after each dose (i.e., days 21 and 42) for end-of-study assessments.
Additional samples were obtained 5 minutes into the IV infusion and at its end.
Urine and fecal specimens were also collected at the end-of-study assessment. Saliva for ^14C analysis was obtained before dosing, 0.25, 0.5, 2, and 8 hours afterward, and on occurrence of any treatment-related adverse event related to dysgeusia. Vomitus for ^14C analysis was collected at any time over the 7 days after oral administration when vomiting occurred.
Adverse events were evaluated daily, classified by intensity and association with treatment, and coded according to the MedDRA dictionary version 6.1. Vital signs, physical examination, 12-lead electrocardiograph (ECG), and laboratory tests including clinical chemistry, hematology, and urinalysis were evaluated at screening, 7 days after dosing, and at the end-of-study assessment. […] In addition, vital signs and 12-lead ECG were obtained 15 minutes before dosing; the vital signs assessment was repeated 15, 30, 60, and 90 minutes after dosing and then daily for 7 days.
Plasma samples first underwent solid-phase extraction on SPE cartridges containing a 30-mg MCX phase (Waters, Milford, Mass.); urine samples were analyzed directly. For the determination of glucuronide and sulphate conjugates, plasma and urine samples underwent an enzymatic deconjugation with a solution of β-glucuronidase (5000 units/mL in 0.1 M sodium acetate buffer pH 5.0) and were incubated for 30 hours (plasma) or 20 hours (urine) at 37° C. Subsequently, the urine samples were injected directly on to the column and the plasma samples were further treated with SPE as described above. […] The other part of the LC column effluent was directed to model API 3000 MS (MDX Sciex, Concord, Canada) with ionspray detection for structural confirmation and identification.
Pharmacokinetic values were analyzed using noncompartmental analysis by means of WinNonlin version 5.0 (Pharsight Corp, Mountain View, Calif.). […] Oral bioavailability (F) was determined from the ratio of AUC0-∞ after oral dosing to AUC0-∞ after IV dosing, and was used to calculate the oral clearance (CL/F), Vdz after oral dosing (Vdz/F), and Vss after oral dosing (Vss/F).
The amount of these analytes excreted in urine was calculated according to time period and cumulatively over the 7 days. Total ^14C in urine and feces (and vomitus, if applicable) was also determined by time and cumulatively over the study for the mass-balance estimation.
Concentrations below the lower limit of quantitation were set to 0. […] Safety parameters were summarized descriptively for the entire cohort.

[1] = IV infusion of 14C-vernakalant, EMs (n = 5)
[2] = IV infusion of 14C-vernakalant, PMs (n = 2)
[3] = oral administration of 14C-vernakalant, EMs (n = 5)
[4] = oral administration of 14C-vernakalant, PMs (n = 2)
[5] = IV infusion, EMs (n = 5), listed as Compound 2G
[6] = oral administration, EMs (n = 5)
[7] = oral administration, PMs (n = 2)

Row | Cumulative Amount Excreted in Urine During the 7 Days After Administration [1] | Cumulative Amount Excreted in Urine During the 7 Days After Administration [2] | Cumulative Amount Excreted in Urine During the 7 Days After Administration [3] | Cumulative Amount Excreted in Urine During the 7 Days After Administration [4] | AUC0-∞ (IV infusion, EMs (n = 5)) | Cmax (IV infusion, EMs (n = 5)) | Tmax (IV infusion, EMs (n = 5)) | t1/2 (IV infusion, EMs (n = 5)) | AUC0-∞ (IV infusion, PMs (n = 2)) | Cmax (IV infusion, PMs (n = 2)) | Tmax (IV infusion, PMs (n = 2)) | t1/2 (IV infusion, PMs (n = 2)) | AUC0-∞ [6] | Cmax [6] | Tmax [6] | t1/2 [6] | AUC0-∞ [7] | Cmax [7] | Tmax [7] | t1/2 [7] | Structure (SMILES) | other results
1 | 120.01 ± 19.03 mg | 11.36 ± 5.52 mg | 121.76 ± 44.38 mg | 12.03 ± 0.51 mg | 20,711 ± 2708 ng · h/mL | 3489 ± 371.4 ng/mL | 1.44 ± 0.69 h | 3.29 ± 0.21 h | 1933 ± 360.0 ng·h/mL | 180.5 ± 48.8 ng/mL | 2.17 ± 0.0 h | 5.59 ± 0.73 h | 21,182 ± 3137 ng · h/mL | 3824 ± 349.3 ng/mL | 2.4 h | 3.2 h | 2025 ± 65.9 ng·h/mL | 230.5 ± 4.99 ng/mL | 2.00 ± 0.0 h | 5.01 ± 0.49 h | COc1cc(CCO[C@@H]2CCCC[C@H]2N2CC[C@@H](O)C2)ccc1OC1OC(C(=O)O)C(O)C(O)C1O (stereo partly drawn) [Compound 2 glucuronide] | mean AUC0-∞, times higher in EMs than in PMs (plasma metabolite): 10 times; Tmax [5]: 1.4 h; t1/2 [5]: 3.3 h
2 | 3.11 ± 0.85 mg | 0.48 ± 0.02 mg | 3.88 ± 1.14 mg | 0.62 ± 0.19 mg | 202.5 ± 66.6 ng·h/mL | 68.6 ± 18.0 ng/mL |  | 2.28 ± 0.29 h |  | 3.31 ± 4.67 ng/mL |  |  | 225.2 ± 76.8 ng·h/mL | 63.2 ± 21.9 ng/mL |  | 2.19 ± 0.29 h |  | 6.25 ± 8.84 ng/mL |  |  | COc1cc(CCO[C@@H]2CCCC[C@H]2N2CC[C@@H](O)C2)ccc1O [Compound 2] | 
3 | 8.91 ± 2.86 mg | 44.22 ± 15.10 mg | 11.31 ± 6.48 mg | 50.20 ± 14.99 mg | 1791 ± 764.1 ng·h/mL | 455.6 ± 118.9 ng/mL | 0.48 ± 0.13 h | 2.76 ± 0.65 h | 8074 ± 118.6 ng·h/mL | 942.0 ± 213.5 ng/mL | 1.67 ± 0.71 h | 6.58 ± 2.59 h | 2076 ± 809.3 ng·h/mL | 496.0 ± 158.5 ng/mL | 1.80 ± 0.45 h | 2.57 ± 0.41 h | 7759 ± 1252 ng·h/mL | 1078 ± 297.7 ng/mL | 1.38 ± 0.88 h | 4.32 ± 0.27 h | COc1ccc(CCO[C@@H]2CCCC[C@H]2N2CC[C@@H](O[C@@H]3O[C@H](C(=O)O)[C@@H](O)[C@H](O)[C@H]3O)C2)cc1OC [Vernakalant glucuronide] | AUC0-∞, times higher in PMs than EMs (plasma metabolite): approximately 4 times

Row | Structure (SMILES) | Cumulative Amount Excreted in Urine During the 7 Days After Administration [1] | Cumulative Amount Excreted in Urine During the 7 Days After Administration [2] | Cumulative Amount Excreted in Urine During the 7 Days After Administration [3] | Cumulative Amount Excreted in Urine During the 7 Days After Administration [4] | AUC0-∞ (IV infusion, EMs (n = 5)) | Cmax (IV infusion, EMs (n = 5)) | Tmax (IV infusion, EMs (n = 5)) | t1/2 (IV infusion, EMs (n = 5)) | AUC0-∞ (IV infusion, PMs (n = 2)) | Cmax (IV infusion, PMs (n = 2)) | Tmax (IV infusion, PMs (n = 2)) | t1/2 (IV infusion, PMs (n = 2)) | AUC0-∞ [6] | Cmax [6] | Tmax [6] | t1/2 [6] | AUC0-∞ [7] | Cmax [7] | Tmax [7] | t1/2 [7] | other results
4 | COc1ccc(CCO[C@@H]2CCCC[C@H]2N2CC[C@@H](O)C2)cc1O [Compound 3] | 0.04 ± 0.02 mg | 0.16 ± 0.12 mg | 0.05 ± 0.03 mg | 0.12 ± 0.05 mg |  | 2.85 ± 3.94 ng/mL | 0.34 ± 0.12 h |  |  | 3.72 ± 5.26 ng/mL | 0.42^† h |  |  | 1.41 ± 3.16 ng/mL | 0.77^† h |  |  | 9.08 ± 2.16 ng/mL | 1.25 ± 1.06 h |  | detectability in plasma (after vernakalant hydrochloride dosing): not detectable in plasma at most time points
